Reference: patent publication US5376634A, “Polypeptide compound and a process for preparation thereof” (Fujisawa Pharmaceutical Co., Ltd., priority 1990, dated 1994)
Starred links: 1 amine or outer side, 2 acyl side, 3 side chain; linkers in the order of their positions; H or OH if unused. Positions of bridges follow the written chain, without caps; N, C: chain ends. Non-standard residues stand in square brackets, D forms with d. Residues, ends and D or L forms follow the SMILES beside them. *: point of attachment. hTyr(3S-OH,4S-OH,3'-OSO3H) = N[C@H](C(=O)O)[C@H](O)[C@@H](O)c1ccc(O)c(OS(=O)(=O)O)c1; Orn(4R-OH,5S-OH) = O=C([C@H](C[C@@H](O)[C@H](O)N[*:3])N[*:1])[*:2]; Pro(3S-OH,4S-Me) = C[C@H]1CN[C@H](C(=O)O)[C@H]1O; Benzoyl(4-octyloxy) = CCCCCCCCOc1ccc(C(=O)*)cc1; Gln(3R-OH) = NC(=O)C[C@@H](O)[C@H](N)C(=O)O; Hyp = O=C(O)[C@@H]1C[C@@H](O)CN1

Key:
ICR mice = assay: Acute toxicity, single intravenous injection; format: in vivo; conditions: ICR mice (female, 4 weeks old), dose of 500 mg/kg
Experimental: The acute toxicity of the FR131535 substance was determined to ICR mice (female, 4 weeks old) by a single intravenous injection.

[1] = Solubility (physico-chemical properties); format: physicochemical

With `CCCCCCCCOc1ccc(C(=O)N[C@H]2C[C@@H](O)[C@H](O)NC(=O)[C@@H]3[C@@H](O)[C@@H](C)CN3C(=O)[C@H]([C@H](O)CC(N)=O)NC(=O)[C@H]([C@H](O)[C@@H](O)c3ccc(O)c(OS(=O)(=O)O)c3)NC(=O)[C@@H]3C[C@@H](O)CN3C(=O)[C@H]([C@@H](C)O)NC2=O)cc1` [FR131535] ({Benzoyl(4-octyloxy)}-[Orn(4R-OH,5S-OH)]T[Hyp][hTyr(3S-OH,4S-OH,3'-OSO3H)][Gln(3R-OH)][Pro(3S-OH,4S-Me)]; lactam 1-C) the acute toxicity (ICR mice) was “No toxic symptom was observed”, the Solubility ([1]; acetone) was “slightly soluble” and the Solubility ([1]; methanol) was “soluble”. The Solubility ([1]; n-hexane) was “insoluble” and the Solubility ([1]; water) was “soluble”.
